{
  "source": "patent US20220024891A1",
  "about": "(The Board of Regents of the University of Texas System, priority 2018, published 2022)",
  "key": {"DLD-1 cells": {"test_system": "DLD-1 cells", "assay": "Sensitivity of DLD-1 versus HCT-116 cells to EBP inhibitors", "assay_type": "cell-based, human", "settings": "varying doses"}, "DLD1 tumors": {"test_system": "DLD1 tumors", "assay": "Xenograft mouse model, DLD1 tumors", "assay_type": "in vivo", "settings": "nude mice, 40 mg/kg intraperitoneally twice daily for 18 days"}, "[1]": {"test_system": "colorectal tumors in CPC;Apc mice", "assay": "Anti-tumor effects in CPC;Apc mice", "assay_type": "in vivo, mouse", "settings": "90 days' treatment", "procedure": "These mice carry a CDX2P-NLS Cre recombinase transgene and a loxP-targeted Apc allele that deletes exon 14, leading to a frame shift at codon 580 and a truncated APC protein. […] Weights were measured every 15 days over the treatment period. These studies were performed according to the guidelines of the UT Southwestern Institutional Animal Care and Use Committee."}, "[2]": {"assay": "Mouse PK analysis, plasma", "assay_type": "in vivo"}, "[3]": {"assay": "Mouse PK analysis, large intestine", "assay_type": "in vivo", "settings": "for AUC(0-t): female, CD-1, mouse, large intestine, read-out: Large Intestinal pK AUClast (converted)"}},
  "note": "Read-outs that look alike come from different tables or passages of the source.",
  "data": [
    {"compound": "CC(C(O)c1ccc(O)cc1)N1CCC(Cc2ccccc2)CC1", "note": "(stereo not shown) [Ifenprodil, ifenprodil]", "values": [
      {"measurement": "selective sensitivity of DLD-1 versus HCT-116 cells", "setting": "DLD-1 cells", "value": "selectively sensitive"}
    ]},
    {"compound": "COc1ccc2c(c1)CCC(c1ccccc1)=C2c1ccc(OCCN2CCCC2)cc1", "note": "[Nafoxidine, nafoxidine]", "values": [
      {"measurement": "selective sensitivity of DLD-1 versus HCT-116 cells", "setting": "DLD-1 cells", "value": "selectively sensitive"}
    ]},
    {"compound": "COc1ccc(S(=O)(=O)N2CCC(N3CCC(C)CC3)CC2)cc1", "note": "[TASIN-1]", "values": [
      {"measurement": "toxicity and body weights", "setting": "DLD1 tumors", "value": "no overt toxicity and no statistically significant differences were observed in the body weights"},
      {"measurement": "body weight over treatment", "setting": "[1]", "value": "gained weight to a level similar to WT mice"}
    ]},
    {"compound": "CC1CCN(C2CCN(S(=O)(=O)c3ccc(OC(F)F)cc3)CC2)CC1", "note": "[compound 22, 1′-((4-(Difluoromethoxy)phenyl)sulfonyl)-4-methyl-1,4′-bipiperidine]", "values": [
      {"measurement": "oral bioavailablity", "setting": "[2]; 20 mg/kg", "value": 52, "unit": "%"},
      {"measurement": "Cmax", "setting": "[2]; female, CD-1, mouse, plasma, iv, dosed intravenously (i.v.)", "value": "191 to 742", "unit": "ng/mL"},
      {"measurement": "Plasma pK AUClast (ng · min/mL)", "setting": "[2]; ip, 10 mg/kg", "value": "205,914 ng · min/mL"},
      {"measurement": "Plasma pK Cmax (ng/mL)", "setting": "[2]; ip, 10 mg/kg", "value": "1,117 ng/mL"},
      {"measurement": "Plasma pK Tmax (min)", "setting": "[2]; ip, 10 mg/kg", "value": 10, "unit": "min"},
      {"measurement": "Plasma pK Vz (mL)", "setting": "[2]; ip, 10 mg/kg", "value": 156, "unit": "mL"},
      {"measurement": "Plasma pK AUClast (ng · min/mL)", "setting": "[2]; iv, 5 mg/kg", "value": "197,571 ng · min/mL"},
      {"measurement": "Plasma pK Cmax (ng/mL)", "setting": "[2]; iv, 5 mg/kg", "value": 742, "unit": "ng/mL"},
      {"measurement": "Plasma pK Tmax (min)", "setting": "[2]; iv, 5 mg/kg", "value": 10, "unit": "min"},
      {"measurement": "Plasma pK Vz (mL)", "setting": "[2]; iv, 5 mg/kg", "value": 135, "unit": "mL"},
      {"measurement": "Plasma pK AUClast (ng · min/mL)", "setting": "[2]; po, 20 mg/kg", "value": "328,296 ng · min/mL"},
      {"measurement": "Plasma pK Cmax (ng/mL)", "setting": "[2]; po, 20 mg/kg", "value": 691, "unit": "ng/mL"},
      {"measurement": "Plasma pK Vz (mL)", "setting": "[2]; po, 20 mg/kg", "value": 153, "unit": "mL"},
      {"measurement": "AUC(0-t)", "setting": "[3]; ip, 10 mg/kg", "value": 13200, "unit": "ng·h/mL"},
      {"measurement": "AUC(0-t)", "setting": "[3]; iv, 5 mg/kg", "value": 8530, "unit": "ng·h/mL"},
      {"measurement": "AUC(0-t)", "setting": "[3]; po, 20 mg/kg", "value": 14800, "unit": "ng·h/mL"},
      {"measurement": "Large Intestinal pK Tmax (min)", "setting": "[3]; po, 20 mg/kg", "value": 10, "unit": "min"},
      {"measurement": "melting point", "value": "132 to 135", "unit": "°C"}
    ]}
  ]
}
